Measured values published in patent US11207301B2, “Sphingosine 1 phosphate receptor agonists for neuroprotection” (RECEPTOS LLC, priority 2017, dated 2021).

What was measured:
Type in all cases: cell-based
[1] = test system: ERK phosphorylation in primary human astrocytes; assay: ERK phosphorylation in primary human cortical astrocytes (AlphaLISA SureFire Ultra); conditions: 10-minute exposure, n=3-5
Experimental: (§1) For the experiments using mouse and human primary astrocytes, ten-point concentration-response curves (90 nM-4.57 pM or 30 nM-1.52 pM) were generated for AKT and/or ERK phosphorylation in primary human and mouse cortical astrocytic cultures in response to a 10-minute treatment with ozanimod, Compound 3, Compound 1, or FTY720-P. AKT and ERK phosphorylation were quantified using AlphaLISA SureFire Ultra Assay kits and the EnVision Plate Reader. AKT and ERK phosphorylation within treated astrocytes were expressed as the mean change in signal intensity compared to the dimethyl sulfoxide (DMSO) vehicle and the half maximal effective concentration (EC50) was determined using non-linear regression.
Primary human astrocytes were purchased from ScienCell Research Laboratories, Inc. and cultured according to the supplier's protocol. The astrocytes were obtained from the human cerebral cortex, cryopreserved at passage one, and delivered frozen. The frozen vials of cells were gently thawed in a 37° C. water bath. Once the contents of the vial were completely thawed, the cell solution was dispensed into a poly-L-lysine (PLL) coated T75 tissue culture flask with 16 mL of human Astrocyte Media, (ScienCell Research Laboratories, Inc.) and incubated at 37° C. 5% CO2. Once the human astrocytes had reached confluency in the T75 flask, they were detached using trypsin/EDTA 0.25%, pelleted at 300×g, split into two PLL coated T225 tissue culture flasks in 40 mL of astrocyte media, and incubated at 37° C. 5% CO2. Once the astrocytes reached confluency in the T225 flasks, they were detached using trypsin/EDTA 0.25% solution, pelleted at 300×g, plated into poly-D-lysine (PDL) coated 96-well plates at a density of 10,000 cells per well in 200 μL human Astrocyte Media, and incubated at 37° C. 5% CO2. Half of the media was replenished every 3-4 days. After 5-7 days of incubation, the P2 human astrocyte plates were utilized for the pERK and pAKT assays.
(§2) Cell lysis and detection of pERK were performed according to the PerkinElmer AlphaLISA SureFire Ultra p-ERK1/2 (Thr202/TYR 204) assay protocol. Astrocytes were lysed in the 96-well plate following a 10 minute incubation with compounds with shaking at RT. The astrocytic lysates (10 μL/well) were transferred into a 384-well OptiPlate. As specified by the assay protocol, an acceptor bead mix and a donor bead mix (5 μL/well for each) were added to the plate under subdued light. Plates were sealed with adhesive plate seals and incubated in the dark for 2 hours at RT. The plates were read on the EnVision Plate Reader to assess the pERK levels.
(§3) The AKT and ERK phosphorylation data, collected by a Perkin Elmer EnVision Microplate Reader, was analyzed by non-linear regression (GraphPad Prism, version 7.03) to determine the EC50 values.

[2] = test system: ERK phosphorylation in primary rat astrocytes; assay: ERK phosphorylation in primary rat astrocytes (MSD pERK assay); conditions: 10-minute exposure, mean of n=3
Experimental: (§4) For the experiments using rat primary astrocytes, eight-point concentration-response curves were generated for AKT and ERK phosphorylation in primary rat astrocytes cultures in response to a 10-minute treatment with ozanimod (100 nM-46 pM), Compound 3 (10 nM-5 pM), Compound 1 (10 nM-5 pM), or FTY720-P (10 nM-5 pM). Phosphorylation of AKT and ERK was quantified using Meso Scale Discovery assay kits (MSD Mutli-Spot Phopho-AKT (Ser473) Assay Kit and MSD Multi-Spot MAP Kinase Phosphoprotein Assay Whole Cell Lysate Kit) and imaging platform. AKT and ERK phosphorylation within treated astrocytes were assessed as the mean change in signal intensity compared to DMSO vehicle and the half maximal effective concentration (EC50) was determined using non-linear regression.
(§5) Embryonic day18 (E18) rat cortices were purchased from BrainBits LLC. (Springfield, Ill.) and were cultured according to the supplier's protocol. Briefly, cortices were incubated at 37° C. for 10 minutes in activated papain solution before trituration in hibernation medium containing B27 supplement using a modified siliconized glass Pasteur pipette. The cell suspension was centrifuged at 1100×g for 1 minute at room temperature (RT). The cell pellet was then resuspended in NbAstro medium (BrainBits LLC.) and the live cell density was assessed using a cell counter. Primary cells were plated at a density of 7500 cells/cm2 in T75 tissue culture flasks coated with poly-D-lysine (PDL) in a total volume of 12 mL of NbAstro media, and incubated for 10-14 days at 37° C. 5% CO2. After 10-14 days, primary astrocytes in passage 0 (P0) that had reached confluency in the T75 flasks were detached using TrypLE detachment reagent, pelleted at 300×g, and plated into poly-d-lysine coated T225 flasks in 20 mL of NbAstro media, and incubated for another 7 days at 37° C. 5% CO2. After 7 days, primary P1 astrocytes in confluent T225 flasks were detached using TrypLE detachment reagent, pelleted at 300×g, and plated intopoly-d-lysine coated 96-well plates at 10,000 cells per well in 200 μL of NbAstro media, and incubated for 7 days at 37° C. 5% CO2. After 7 days, P2 primary astrocytes were utilized for pAKT and pERK assays.
(§6) The pERK (phosphorylated ERK)/pMAPkinase assay was performed according to the manufacturer's protocol. Briefly, MSD pERK/pMAPkinase plates were blocked for 1-2 hours by adding 150 μL of blocker A prepared in 1× Tris wash buffer. […] Following antibody incubation, plates were washed three times with 150 μL of 1× Tris wash buffer and 1× read buffer (150 μL/well) was added. Finally, the plates were read in the MSD imager platform to assess the pERK levels.
(§7) AKT and ERK phosphorylation data were analyzed by non-linear regression (GraphPad Prism, version 6) to determine the EC50 values.

[3] = test system: AKT phosphorylation in primary rat astrocytes; assay: AKT phosphorylation in primary rat astrocytes (MSD pAKT assay); conditions: 10-minute exposure, mean of n=4
Experimental: as §4, §5
as §6, with “pAKT” for “pERK”, “AKT)” for “ERK)/pMAPkinase”, “pAKT” for “pERK/pMAPkinase”, “Finally,” for “Finally, the”, “pAKT” for “the pERK”
as §7

[4] = test system: AKT phosphorylation in primary mouse astrocytes; assay: AKT phosphorylation in primary mouse cortical astrocytes (AlphaLISA SureFire Ultra); conditions: 10-minute exposure, mean of n=3
Experimental: as §1
(§8) Timed pregnant (E16) C57BL/6J female mice arrive to the test facility on a weekly basis and were housed and cared for according to appropriate protocols for this model. Primary mouse cortical astrocytes are harvested from P0-P2 pups. The newly born animals were deeply anesthetized on ice, decapitated, and the brains were rapidly removed and stored in ice-cold NbAstro media (BrainBits, LLC). Cells were dissociated from freshly dissected cortices by mechanical disruption in the presence of trypsin and DNase. Cells were put into a PDL coated T75 tissue culture flask containing 16 mL NbAstro Media and incubated at 37° C. 5% CO2. Once the mouse astrocytes had reached confluency in the T75 flask, they were detached using TripLE detachment reagent, pelleted at 300×g, expanded into two T225 PDL coated tissue culture flasks containing 40 mL of NbAstro and incubated at 37° C. 5% CO2. Once the astrocytes reached confluency in the T225 flasks they were detached using TrypLE detachment reagent, pelleted at 300×g, plated into PDL coated 96-well plates at a density of 10,000 cells per well in 200 μL NbAstro and incubated at 37° C. 5% CO2. Half of the media was replenished every 3-4 days. After 5-7 days of incubation, the P2 mouse astrocyte plates were utilized for the pERK and pAKT assays.
as §2, with “pAKT” for “pERK”, “pAKT1/2/3 ([…])” for “p-ERK1/2 (Thr202/TYR 204)”, “room temperature (RT).” for “RT.”, “Plates were sealed with adhesive plate seals and incubated in the dark for 2 hours at RT.” left out
as §3

[5] = test system: ERK phosphorylation in primary mouse astrocytes; assay: ERK phosphorylation in primary mouse cortical astrocytes (AlphaLISA SureFire Ultra); conditions: 10-minute exposure
Experimental: as §1
as §8, with “Once the astrocytes reached confluency in the T225 flasks they were detached using TrypLE detachment reagent, pelleted at 300×g, plated into PDL coated 96-well plates at a density of 10,000 cells per well in 200 μL NbAstro and incubated at 37° C. 5% CO2. Half of the media was replenished every 3-4 days. After 5-7 days of incubation, the P2 mouse astrocyte plates were utilized for the pERK and pAKT assays.” left out
Cell lysis and detection of pERK were performed according to the PerkinElmer AlphaLISA SureFire Ultra p-ERK1/2 (Thr202/TYR 204) assay protocol. […] The plates were read on the EnVision Plate Reader to assess the pERK levels.
as §3

EC50 [1]: 0.73 nM | EC50 [2]: 0.16 nM | EC50 [3]: 0.17 nM | EC50 [4]: 0.09 nM | EC50 [5]: 0.14 nM
Structure (SMILES): CCCCCCCCc1ccc(CC[C@](N)(CO)COP(=O)(O)O)cc1 [FTY720-P, reference compound]
